The source of these data is PubChem BioAssay (NCI).

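Test compounds were applied to cells in 96-well plates for 48 hours at 5 doses. GI50: concentration for 50% inhibition of growth. TGI marks complete inhibition of growth.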

Some test systems named below: MOLT-4 leukemia; HOP-62 NSCLC; LOX IMVI melanoma; OVCAR-8 ovarian; PC-3 prostate; SK-MEL-28 melanoma; K-562 leukemia; NCI/ADR-RES ovarian; TK-10 renal; A498 renal.
Holding throughout (assay): NCI-60 cell line screen, 48 h

As for `CCOC(=O)Nc1nc2ccc(OC)cc2s1`, the GI50 in the assay with MOLT-4 leukemia, with HOP-62 NSCLC, with LOX IMVI melanoma, with OVCAR-8 ovarian, in the assay with PC-3 prostate and in the assay on SK-MEL-28 melanoma was over 100 µM each time. In addition, the GI50 with K-562 leukemia, in the assay on NCI/ADR-RES ovarian and in the assay with TK-10 renal was over 100 µM each time. In addition, the TGI with MOLT-4 leukemia, in the assay with HOP-62 NSCLC, with LOX IMVI melanoma, in the assay on OVCAR-8 ovarian, in the assay with PC-3 prostate and in the assay on SK-MEL-28 melanoma was over 100 µM in each case. Further, the TGI in the assay on K-562 leukemia, with NCI/ADR-RES ovarian and in the assay on TK-10 renal was over 100 µM in each case.
`CCc1ccc(NC(=O)NC(=O)c2ccccc2[N+](=O)[O-])cc1Oc1ncc(Cl)cn1`: the TGI was over 100 µM in the assay with MOLT-4 leukemia; 75.3 µM with HOP-62 NSCLC; 14.5 µM with LOX IMVI melanoma; over 100 µM with OVCAR-8 ovarian; 9.1 µM in the assay with A498 renal; over 100 µM in the assay with PC-3 prostate. Besides, the TGI was over 4.64 µM in the assay with SK-MEL-28 melanoma, over 100 µM in the assay on K-562 leukemia and over 100 µM in the assay on TK-10 renal.
Consider `OCc1ccc(N2CCc3cccc(F)c3C2)cc1Cl`, for which the GI50 with MOLT-4 leukemia was 23 µM; with HOP-62 NSCLC, 0.0275 µM; in the assay with LOX IMVI melanoma, 23.5 µM; with OVCAR-8 ovarian, 5.85 µM; with A498 renal, under 0.0145 µM; in the assay on PC-3 prostate, 16 µM. Moreover, the GI50 is 25.7 µM in the assay on SK-MEL-28 melanoma, under 0.0206 µM with K-562 leukemia and 7.68 µM with NCI/ADR-RES ovarian. For the same molecule, the TGI with MOLT-4 leukemia was 71 µM; in the assay on HOP-62 NSCLC it was 27.2 µM; in the assay with LOX IMVI melanoma, over 63.2 µM; with OVCAR-8 ovarian, 41.9 µM; with A498 renal, 0.0405 µM; in the assay with PC-3 prostate, 47.9 µM. The TGI was over 79.7 µM with SK-MEL-28 melanoma, 16.5 µM in the assay on K-562 leukemia and 37.1 µM in the assay on NCI/ADR-RES ovarian.
For the molecule `O=c1c2cc(F)ccc2sc2c(N3CCNCC3)nc3ccc(F)cc3c12`, the GI50 is 1.82 µM in the assay on HOP-62 NSCLC; 1.62 µM in the assay with LOX IMVI melanoma; 1.67 µM with A498 renal; 1.7 µM in the assay on PC-3 prostate; 1.74 µM with SK-MEL-28 melanoma; 1.75 µM in the assay with NCI/ADR-RES ovarian. In addition, the GI50 in the assay with TK-10 renal is 1.94 µM. In addition, the TGI amounted to 3.85 µM in the assay on HOP-62 NSCLC; 3.16 µM in the assay with LOX IMVI melanoma; 3.09 µM in the assay with A498 renal; 3.3 µM in the assay on PC-3 prostate; 3.17 µM in the assay on SK-MEL-28 melanoma; 3.44 µM with NCI/ADR-RES ovarian. The molecule further showed a TGI in the assay with TK-10 renal of 3.47 µM.
Take `CCCCCCCCCCCCCCCCCC1=NC(C)(C)CN1CC(C)O` (stereo not given): the GI50 is 5.69 µM in the assay on HOP-62 NSCLC; 1.81 µM in the assay on LOX IMVI melanoma; 3.99 µM in the assay on OVCAR-8 ovarian; 15.3 µM with A498 renal; 3.31 µM with PC-3 prostate; 17.1 µM in the assay on SK-MEL-28 melanoma. The GI50 in the assay on K-562 leukemia is 2.45 µM; in the assay on NCI/ADR-RES ovarian, 3.97 µM; in the assay with TK-10 renal, 20.9 µM. For the same molecule, the TGI in the assay with HOP-62 NSCLC came out at 26 µM; in the assay on LOX IMVI melanoma, 3.44 µM; with OVCAR-8 ovarian, 14.5 µM; with A498 renal, 32.2 µM; in the assay on PC-3 prostate, 10.8 µM; in the assay with SK-MEL-28 melanoma, 33.5 µM. Also, the TGI in the assay on K-562 leukemia stood at 5.44 µM; in the assay with NCI/ADR-RES ovarian, 23.6 µM; in the assay on TK-10 renal it was 39 µM.
As for `COc1ccc(/C=C/C(=O)/C=C/c2cc3ccccc3[nH]c2=O)cc1`, the GI50 is 3.2 µM with MOLT-4 leukemia; 4.67 µM with HOP-62 NSCLC; 3.55 µM in the assay with OVCAR-8 ovarian; 5.73 µM in the assay with A498 renal; 2.38 µM in the assay with PC-3 prostate; 13.9 µM with SK-MEL-28 melanoma. The GI50 in the assay on K-562 leukemia was 3.34 µM; in the assay on NCI/ADR-RES ovarian it was 20.5 µM; with TK-10 renal, 5.45 µM. The TGI in the assay with MOLT-4 leukemia was 9.24 µM; in the assay with HOP-62 NSCLC, 17.8 µM; in the assay with OVCAR-8 ovarian, 22.4 µM; in the assay with A498 renal, 18.8 µM; in the assay with PC-3 prostate it was 7.81 µM; in the assay on SK-MEL-28 melanoma, 34.7 µM. Besides, the TGI is over 100 µM with K-562 leukemia, over 100 µM with NCI/ADR-RES ovarian and 17.4 µM with TK-10 renal.
In the case of `C=CCn1c(C)nc2ccc(Nc3nc(Nc4ccc(F)cc4)nc4ccccc34)cc21`, the GI50 with MOLT-4 leukemia was 1.77 µM; in the assay with LOX IMVI melanoma, 4.36 µM; with OVCAR-8 ovarian, 3.05 µM; in the assay on A498 renal it was 4.36 µM; in the assay with PC-3 prostate, 3.14 µM; with SK-MEL-28 melanoma, 1.65 µM. The GI50 is 3.13 µM in the assay on K-562 leukemia, 4.01 µM in the assay with NCI/ADR-RES ovarian and 6.83 µM with TK-10 renal. Moreover, the TGI with MOLT-4 leukemia stood at 6.27 µM; in the assay with LOX IMVI melanoma, 23 µM; in the assay with OVCAR-8 ovarian, 13.6 µM; in the assay on A498 renal it was 24.1 µM; with PC-3 prostate it was 14.7 µM; in the assay on SK-MEL-28 melanoma, 3.13 µM. The TGI in the assay on K-562 leukemia amounted to 11.9 µM; in the assay with NCI/ADR-RES ovarian it was 37.7 µM; with TK-10 renal, 24.6 µM.
As for `COc1ccc(NC(=O)CSC2=C(Nc3cccc(Br)c3)C(=O)N(Cc3ccccc3)C2=O)cc1Cl`, the GI50 was 1.73 µM in the assay with MOLT-4 leukemia; over 100 µM with HOP-62 NSCLC; 40.4 µM in the assay with LOX IMVI melanoma; over 100 µM in the assay with OVCAR-8 ovarian; 8.82 µM with PC-3 prostate; over 100 µM in the assay on SK-MEL-28 melanoma. Also, the GI50 with K-562 leukemia was 4.41 µM; in the assay with TK-10 renal, 44.4 µM. Besides, the TGI in the assay on MOLT-4 leukemia, with HOP-62 NSCLC, with LOX IMVI melanoma, in the assay on OVCAR-8 ovarian, in the assay on PC-3 prostate and with SK-MEL-28 melanoma was over 100 µM throughout. The TGI in the assay on K-562 leukemia and in the assay with TK-10 renal was over 100 µM throughout.
For the molecule `CCOC(=O)C(Cc1c[nH]c2c(N(CCO)CCO)cccc12)(NC(C)=O)C(=O)OCC`, the GI50 in the assay on HOP-62 NSCLC was over 1000 µM; in the assay with LOX IMVI melanoma, 141 µM; in the assay on OVCAR-8 ovarian, over 1000 µM; in the assay with PC-3 prostate, 409 µM; in the assay with SK-MEL-28 melanoma it was 736 µM; in the assay on K-562 leukemia it was 194 µM. Moreover, the GI50 with NCI/ADR-RES ovarian and in the assay with TK-10 renal was over 1000 µM throughout. Also, the TGI in the assay on HOP-62 NSCLC was over 1000 µM; in the assay with LOX IMVI melanoma, 283 µM; in the assay with OVCAR-8 ovarian, over 1000 µM; in the assay with PC-3 prostate, over 1000 µM; in the assay on SK-MEL-28 melanoma, over 1000 µM; with K-562 leukemia it was 516 µM. Moreover, the TGI in the assay with NCI/ADR-RES ovarian and with TK-10 renal was over 1000 µM throughout.
